These results are taken from patent publication US11787762B2, “Tetralin and tetrahydroquinoline compounds as inhibitors of HIF-2alpha” (ARCUS BIOSCIENCES, INC., priority 2020, dated 2023).

The assay has as its target T1, HIF-2α (Homo sapiens, UniProt Q99814).
T1 construct: host or cells: 786-O cells stably transduced with Cignal Lenti HIF Luc Reporter (only the reporter was introduced, not HIF-2α)
The experiment in a line: HIF-2α luciferase reporter assay in HIF-Luc-786-O cells. In kind it is cell-based. The following applies: Table 3, 20 hours incubation. As for the experimental part: Generation of HIF-2α Luciferase 786-O Cell Line:
Stable cell lines were generated by transducing 786-O cells (ATCC, CRL-1932) with Cignal Lenti HIF Luc Reporter lentivirus (CLS-007 L, Qiagen) according to the manufacturer's guidelines. In brief, 0.3×10^6 786-0 cells were transduced with lentivirus at a Multiplicity of Infection (MOI) of 25 for 24 hours. After transduction, cells were replenished with fresh RPMI 1640 Medium (Cat. No. 11875085, Thermo Fisher,) supplemented with 10% FBS (Cat. No. A3160502, Gibco), 2 mM GlutaMax (Cat. No. 35050-061, Invitrogen) and 100 units of penicillin and 100 μg of streptomycin/mL (Cat. No 15070063, Thermo Fisher) for another 24 hours. Antibiotic selection was performed in cell media containing 4 μg/mL of Puromycin. After 7 days of antibiotic selection, stable pools of surviving cells were expanded and used in a luciferase reporter assay.
HIF-2α Luciferase Reporter Assay:
On day one, 20 uL of HIF-Luc-786-0 cells in OptiMem (Cat. No. 31985088, Thermo Fisher) were seeded into each well of a 384 well white opaque plate (Corning 3570) and incubated at 37° C. and 5% CO2. Twenty microliters of 2× test compounds in OptiMem were added to cells after 4 hours of incubation. Final assay conditions comprised 20,000 cells per well in 1% DMSO with test compound concentrations ranging from 50 uM to 0 uM. After 20 hours incubation at 37° C. and 5% CO2, luciferase activity was determined using ONE-Glo Luciferase Assay Reagent (E6110, Promega) following the manufacture's recommended procedure. Briefly, 40 uL of ONE-Glo luciferase reagents were added to each well and luciferase signals were measured using an Envision 2102 Multilabel Reader. Percentage maximum activity in each test well was calculated based on DMSO (maximum activity) and no cell control wells (baseline activity). The IC50 values of the test compounds were determined from compound dose response curves fitted using a standard four parameter fit equation.
Background: A reporter such as luciferase makes a cellular process visible.

A value given as a limit tells only on which side of the number the result lay.

T1 sequence (Q99814 whole entry): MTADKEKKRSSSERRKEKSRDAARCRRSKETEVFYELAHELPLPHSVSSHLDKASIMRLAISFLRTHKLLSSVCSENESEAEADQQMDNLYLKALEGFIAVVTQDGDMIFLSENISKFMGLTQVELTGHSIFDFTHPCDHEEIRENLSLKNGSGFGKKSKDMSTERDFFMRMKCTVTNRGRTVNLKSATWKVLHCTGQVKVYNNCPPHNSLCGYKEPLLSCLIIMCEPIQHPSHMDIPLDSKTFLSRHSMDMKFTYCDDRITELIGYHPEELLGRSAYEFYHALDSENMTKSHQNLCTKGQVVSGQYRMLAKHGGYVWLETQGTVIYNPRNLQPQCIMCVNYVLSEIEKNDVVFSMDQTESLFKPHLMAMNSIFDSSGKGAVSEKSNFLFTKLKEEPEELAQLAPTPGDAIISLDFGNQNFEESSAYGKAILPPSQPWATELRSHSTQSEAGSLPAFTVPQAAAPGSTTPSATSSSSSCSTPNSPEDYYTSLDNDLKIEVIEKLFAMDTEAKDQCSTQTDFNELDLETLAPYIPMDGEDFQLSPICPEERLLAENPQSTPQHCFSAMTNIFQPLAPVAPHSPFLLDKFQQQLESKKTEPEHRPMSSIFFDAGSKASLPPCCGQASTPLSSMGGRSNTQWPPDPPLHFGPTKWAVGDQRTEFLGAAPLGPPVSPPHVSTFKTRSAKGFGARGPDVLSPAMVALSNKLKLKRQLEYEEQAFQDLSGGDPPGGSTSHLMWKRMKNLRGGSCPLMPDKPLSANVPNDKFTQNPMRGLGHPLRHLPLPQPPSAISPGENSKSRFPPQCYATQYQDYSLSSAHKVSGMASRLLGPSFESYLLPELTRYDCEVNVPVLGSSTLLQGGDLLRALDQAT

Regarding `N#Cc1cc(F)cc2c1[C@@H](c1ccc(C#N)c3c1CC(F)(F)[C@H]3O)CC[C@@H]2F` [Example 201, (5S,8R)-8-[(1S)-7-cyano-2,2-difluoro-1-hydroxy-1,3-dihydroinden-4-yl]-3,5-difluoro-5,6,7,8-tetrahydronaphthalene-1-carbonitrile], the IC50 was under 0.1 µM.

Turning to `Cn1cc(-c2c(F)cc([C@H]3CC[C@H](F)c4cc(F)cc(C#N)c43)c3c2[C@H](O)C(F)(F)C3)nn1` [Example 202, (5S,8R)-3,5-Difluoro-8-[(1S)-2,2,6-trifluoro-1-hydroxy-7-(1-methyltriazol-4-yl)-1,3-dihydroinden-4-yl]-5,6,7,8-tetrahydronaphthalene-1-carbonitrile], the IC50 is under 0.1 µM.

In turn, `Cc1nc(N)ccc1-c1c(F)cc([C@H]2CC[C@H](F)c3cc(F)cc(C#N)c32)c2c1[C@H](O)C(F)(F)C2` [Example 203, (5S,8R)-8-[(1S)-7-(6-amino-2-methylpyridin-3-yl)-2,2,6-trifluoro-1-hydroxy-1,3-dihydroinden-4-yl]-3,5-difluoro-5,6,7,8-tetrahydronaphthalene-1-carbonitrile] gave an IC50 of under 0.1 µM.

As for `N#Cc1ccc(-c2c(F)cc([C@H]3CC[C@H](F)c4cc(F)cc(C#N)c43)c3c2[C@H](O)C(F)(F)C3)c(N)c1` [Example 204, (5S,8R)-8-[(1S)-7-(2-amino-4-cyanophenyl)-2,2,6-trifluoro-1-hydroxy-2,3-dihydro-1H-inden-4-yl]-3,5-difluoro-5,6,7,8-tetrahydronaphthalene-1-carbonitrile], the IC50 is under 0.1 µM.

The compound `Cc1ncc(-c2c(F)cc([C@H]3CC[C@H](F)c4cc(F)cc(C#N)c43)c3c2[C@H](O)C(F)(F)C3)c(N)n1` [Example 205, (5S,8R)-8-[(1S)-7-(4-amino-2-methylpyrimidin-5-yl)-2,2,6-trifluoro-1-hydroxy-2,3-dihydro-1H-inden-4-yl]-3,5-difluoro-5,6,7,8-tetrahydronaphthalene-1-carbonitrile] came in with an IC50 of under 0.1 µM.

Consider `Cc1nc(C#N)ncc1-c1c(F)cc([C@H]2CC[C@H](F)c3cc(F)cc(C#N)c32)c2c1[C@H](O)C(F)(F)C2` [Example 206, 5-[(3S)-7-[(1R,4S)-8-cyano-4,6-difluoro-1,2,3,4-tetrahydronaphthalen-1-yl]-2,2,5-trifluoro-3-hydroxy-2,3-dihydro-1H-inden-4-yl]-4-methylpyrimidine-2-carbonitrile], for which the IC50 was under 0.1 µM.

Take `N#Cc1cc(F)cc2c1[C@@H](c1cc(F)c(Cl)c3c1CC(F)(F)[C@H]3O)CC[C@@H]2F` [Example 207, (5S,8R)-8-[(1S)-7-chloro-2,2,6-trifluoro-1-hydroxy-1,3-dihydroinden-4-yl]-3,5-difluoro-5,6,7,8-tetrahydronaphthalene-1-carbonitrile]: the IC50 is under 0.1 µM.

As for `Cn1cncc1-c1c(F)cc([C@H]2C[C@H](F)[C@H](F)c3cc(F)cc(C#N)c32)c2c1[C@H](O)C(F)(F)C2` [Example 208, (5R,6S)-3,5,6-trifluoro-8-[(1S)-2,2,6-trifluoro-1-hydroxy-7-(1-methyl-1H-imidazol-5-yl)-2,3-dihydro-1H-inden-4-yl]-5,6,7,8-tetrahydronaphthalene-1-carbonitrile], the IC50 is under 0.1 µM.

For the compound `Cc1c(-c2c(F)cc([C@H]3C[C@H](F)[C@H](F)c4cc(F)cc(C#N)c43)c3c2[C@H](O)C(F)(F)C3)cnn1C` [Example 209, (5R,6S)-8-[(1S)-7-(1,5-dimethyl-1H-pyrazol-4-yl)-2,2,6-trifluoro-1-hydroxy-2,3-dihydro-1H-inden-4-yl]-3,5,6-trifluoro-5,6,7,8-tetrahydronaphthalene-1-carbonitrile], the IC50 is under 0.1 µM.

Regarding `Cn1nccc1-c1c(F)cc([C@H]2CC[C@H](F)c3cc(F)cc(C#N)c32)c2c1[C@H](O)[C@H](F)C2` [Example 210, (5S,8R)-8-[(1S,2R)-2,6-difluoro-1-hydroxy-7-(2-methylpyrazol-3-yl)-2,3-dihydro-1H-inden-4-yl]-3,5-difluoro-5,6,7,8-tetrahydronaphthalene-1-carbonitrile], the IC50 is under 0.1 µM.

The compound `CS(=O)(=O)c1c(F)cc([C@H]2CC[C@H](F)c3cc(F)cc(C#N)c32)c2c1[C@H](O)[C@H](F)C2` [Example 211, (5S,8R)-8-[(1S,2R)-2,6-Difluoro-1-hydroxy-7-methylsulfonyl-2,3-dihydro-1H-inden-4-yl]-3,5-difluoro-5,6,7,8-tetrahydronaphthalene-1-carbonitrile] had an IC50 of under 0.1 µM.

Regarding `CS(=O)(=O)c1c(N)cc([C@H]2CC[C@H](F)c3cc(F)cc(C#N)c32)c2c1[C@H](O)[C@H](F)C2` [Example 212, (5S,8R)-8-[(1S,2R)-6-amino-2-fluoro-1-hydroxy-7-methylsulfonyl-2,3-dihydro-1H-inden-4-yl]-3,5-difluoro-5,6,7,8-tetrahydronaphthalene-1-carbonitrile], the IC50 is under 0.1 µM.

For `CS(=O)(=O)c1c(C#N)cc([C@H]2CC[C@H](F)c3cc(F)cc(C#N)c32)c2c1[C@H](O)[C@H](F)C2` [Example 214, (5S,8R)-8-[(1S,2R)-6-Cyano-2-fluoro-1-hydroxy-7-methylsulfonyl-2,3-dihydro-1H-inden-4-yl]-3,5-difluoro-5,6,7,8-tetrahydronaphthalene-1-carbonitrile], the IC50 was in the range of 0.1 to 1 µM.

For the compound `Cc1nc(N)ccc1-c1ccc([C@H]2C[C@H](F)[C@H](F)c3cc(F)cc(C#N)c32)c2c1[C@H](O)C(F)(F)C2` [Example 216, (5R,6S,8R)-8-[(1S)-7-(6-amino-2-methylpyridin-3-yl)-2,2-difluoro-1-hydroxy-2,3-dihydro-1H-inden-4-yl]-3,5,6-trifluoro-5,6,7,8-tetrahydronaphthalene-1-carbonitrile], the IC50 was under 0.1 µM.

Regarding `Cn1nccc1-c1ccc([C@H]2C[C@H](F)[C@H](F)c3cc(F)cc(C#N)c32)c2c1[C@H](O)C(F)(F)C2` [Example 217, (5R,6S,8R)-8-[(1S)-2,2-difluoro-1-hydroxy-7-(1-methyl-1H-pyrazol-5-yl)-2,3-dihydro-1H-inden-4-yl]-3,5,6-trifluoro-5,6,7,8-tetrahydronaphthalene-1-carbonitrile], the IC50 was under 0.1 µM.

Turning to `Cn1nncc1-c1ccc([C@H]2C[C@H](F)[C@H](F)c3cc(F)cc(C#N)c32)c2c1[C@H](O)C(F)(F)C2` [Example 218, (5R,6S,8R)-8-[(1S)-2,2-difluoro-1-hydroxy-7-(1-methyl-1H-1,2,3-triazol-5-yl)-2,3-dihydro-1H-inden-4-yl]-3,5,6-trifluoro-5,6,7,8-tetrahydronaphthalene-1-carbonitrile], the IC50 is under 0.1 µM.

`N#Cc1cc(F)cc2c1[C@@H](c1ccc(Cl)c3c1CC(F)(F)[C@H]3O)C[C@H](F)[C@@H]2F` [Example 219, (5R,6S,8R)-8-[(1S)-7-chloro-2,2-difluoro-1-hydroxy-2,3-dihydro-1H-inden-4-yl]-3,5,6-trifluoro-5,6,7,8-tetrahydronaphthalene-1-carbonitrile] gave an IC50 of under 0.1 µM.

With `Cc1nc(C#N)ncc1-c1ccc([C@H]2C[C@H](F)[C@H](F)c3cc(F)cc(C#N)c32)c2c1[C@H](O)C(F)(F)C2` [Example 220, 5-[(3S)-7-[(1R,3S,4R)-8-cyano-3,4,6-trifluoro-1,2,3,4-tetrahydronaphthalen-1-yl]-2,2-difluoro-3-hydroxy-2,3-dihydro-1H-inden-4-yl]-4-methylpyrimidine-2-carbonitrile], the IC50 is under 0.1 µM.

As to `Cc1ncc(-c2ccc([C@H]3C[C@H](F)[C@H](F)c4cc(F)cc(C#N)c43)c3c2[C@H](O)C(F)(F)C3)c(N)n1` [Example 221, (5R,6S,8R)-8-[(1S)-7-(4-amino-2-methylpyrimidin-5-yl)-2,2-difluoro-1-hydroxy-2,3-dihydro-1H-inden-4-yl]-3,5,6-trifluoro-5,6,7,8-tetrahydronaphthalene-1-carbonitrile], the IC50 is under 0.1 µM.

The compound `N#Cc1cc(F)cc2c1[C@@H](c1ccc(Cl)c3c1C[C@@H](F)[C@H]3O)CC[C@@H]2F` [Example 222, (5S,8R)-8-[(1S,2R)-7-chloro-2-fluoro-1-hydroxy-2,3-dihydro-1H-inden-4-yl]-3,5-difluoro-5,6,7,8-tetrahydronaphthalene-1-carbonitrile] returned an IC50 of under 0.1 µM.

Take `N#Cc1cc(F)cc2c1[C@@H](c1ccc(C(=O)O)c3c1CC(F)(F)[C@H]3O)CC[C@@H]2F` [Example 223, (3S)-7-[(1R,4S)-8-cyano-4,6-difluoro-1,2,3,4-tetrahydronaphthalen-1-yl]-2,2-difluoro-3-hydroxy-1,3-dihydroindene-4-carboxylic acid]: the IC50 lay within 0.1 to 1 µM.

In turn, `CN(C)C(=O)c1ccc([C@H]2CC[C@H](F)c3cc(F)cc(C#N)c32)c2c1[C@H](O)C(F)(F)C2` [Example 224, (3S)-7-[(1R,4S)-8-cyano-4,6-difluoro-1,2,3,4-tetrahydronaphthalen-1-yl]-2,2-difluoro-3-hydroxy-N,N-dimethyl-1,3-dihydroindene-4-carboxamide] yielded an IC50 of 0.1 to 1 µM.

The IC50 is the concentration at which inhibition is half-maximal. The low end stands for higher potency, the high end for lower potency.
